Results: paper PMC7532004, “Site-specific effects of neurosteroids on GABAA receptor activation and desensitization” (eLife, 2020)

How the values were obtained:
[1] = target: T1, α1(N408A/Y411F)β3(Y284F) GABAAR (UniProt P28472+P62813, N434A/Y309F/Y437F); experiment: Two-electrode voltage clamp in Xenopus laevis oocytes, both intrasubunit sites mutated; type: cell-based; settings: 3 μM 3β5αP, 1 mM GABA + 25 μM pentobarbital
T1 construct: expressed in transfected cells; host or cells: Xenopus laevis oocytes injected with cRNA
Procedure: (§1) The wild-type and mutant α1β3 GABAAR were expressed in oocytes from the African clawed frog (Xenopus laevis). Frogs were purchased from Xenopus 1 (Dexter, MI), and housed and cared for in a Washington University Animal Care Facility under the supervision of the Washington University Division of Comparative Medicine. Harvesting of oocytes was conducted under the Guide for the Care and Use of Laboratory Animals as adopted and promulgated by the National Institutes of Health. The animal protocol (No. 20180191) was approved by the Animal Studies Committee of Washington University in St. Louis. The oocytes were injected with a total of 12 ng cRNA. The ratio of cRNAs was 5:1 ratio (α1:β3) to minimize the expression of β3 homomeric receptors. Following injection, the oocytes were incubated in ND96 (96 mM NaCl, 2 mM KCl, 1.8 mM CaCl2, 1 mM MgCl2, 5 mM HEPES; pH 7.4) with supplements (2.5 mM Na pyruvate, 100 U/ml penicillin, 100 μg/ml streptomycin and 50 μg/ml gentamycin) at 16°C for 2 days prior to conducting electrophysiological recordings. The electrophysiological recordings were conducted at room temperature using standard two-electrode voltage clamp. The oocytes were clamped at −60 mV. The chamber (RC-1Z, Warner Instruments, Hamden, CT) was perfused with ND96 at 5–8 ml/min. […] Current traces were analyzed with Clampfit (Molecular Devices). […]

[2] = target: T2, α1(Q242L/N408A/Y411F)β3(Y284F) GABAAR (UniProt P28472+P62813, N434A/Q268L/Y309F/Y437F); experiment: Two-electrode voltage clamp in Xenopus laevis oocytes, all three sites mutated; type: cell-based; settings: 3 μM 3β5αP, 1 mM GABA + 25 μM pentobarbital
T2 construct: expressed in transfected cells; host or cells: Xenopus laevis oocytes injected with cRNA
Procedure: as §1

[3] = target: T3, α1β3 GABAARs on intact HEK cell surfaces (Homo sapiens, UniProt P14867+P28472); experiment: [3H]muscimol binding to intact HEK cells (cell surface vs total receptors); settings: 10 μM KK148; 3 nM [3H]muscimol; intact vs permeabilized HEK cells
T3 construct: inserted between the fourth and fifth residues of the mature peptide; photolabeling full-length heteropentameric GABAARs in native membranes; expressed in transfected cells
T3 sequence (P14867 28-456): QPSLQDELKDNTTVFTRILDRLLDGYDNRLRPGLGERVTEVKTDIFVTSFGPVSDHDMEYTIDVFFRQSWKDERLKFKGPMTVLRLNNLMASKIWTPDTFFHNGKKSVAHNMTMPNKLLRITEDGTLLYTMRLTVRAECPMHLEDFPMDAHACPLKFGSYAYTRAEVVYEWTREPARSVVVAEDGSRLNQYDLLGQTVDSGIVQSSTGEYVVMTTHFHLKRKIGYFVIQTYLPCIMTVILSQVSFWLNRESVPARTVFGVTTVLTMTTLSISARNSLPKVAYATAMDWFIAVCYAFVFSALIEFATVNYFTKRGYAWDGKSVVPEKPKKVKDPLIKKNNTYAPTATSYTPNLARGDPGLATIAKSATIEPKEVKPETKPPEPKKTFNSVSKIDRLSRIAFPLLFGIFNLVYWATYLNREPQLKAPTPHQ
T3 sequence (P28472 26-473): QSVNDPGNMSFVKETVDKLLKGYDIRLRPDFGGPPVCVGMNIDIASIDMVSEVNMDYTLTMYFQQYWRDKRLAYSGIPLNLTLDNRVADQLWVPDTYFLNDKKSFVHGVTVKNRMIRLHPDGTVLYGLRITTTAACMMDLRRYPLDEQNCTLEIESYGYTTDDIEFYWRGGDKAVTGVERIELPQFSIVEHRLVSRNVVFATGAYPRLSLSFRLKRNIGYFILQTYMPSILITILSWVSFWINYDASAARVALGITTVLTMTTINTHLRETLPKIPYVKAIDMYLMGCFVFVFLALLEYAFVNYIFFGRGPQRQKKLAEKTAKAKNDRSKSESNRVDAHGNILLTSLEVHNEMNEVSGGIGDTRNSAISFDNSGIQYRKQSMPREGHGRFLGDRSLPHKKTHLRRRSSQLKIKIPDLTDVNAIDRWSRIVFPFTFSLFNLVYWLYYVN
Procedure: HEK cells were harvested by gently washing dishes with buffer containing 10 mM sodium phosphate (pH 7.5), 150 mM sodium chloride twice. The cells were collected by centrifugation at 500 g at 4°C for 5 min, and resuspended in isotonic (10 mM sodium phosphate, 150 mM sodium chloride, pH 7.5) or hypotonic (10 mM sodium phosphate, pH 7.5) buffer to prepare two different conditions for radioligand binding to intact cells [isotonic buffer for cell surface receptors; hypotonic buffer for total receptors (cell surface receptors + intracellular receptors)]. The cells were incubated on ice for 2 hr, after which the sodium chloride concentration was adjusted to be isotonic before the radioligand binding procedure. HEK cells were aliquoted to assay tubes (20 samples/150 mm dish) in a total volume of 1 ml, and incubated with 3 nM [^3H]muscimol ±10 μM KK148 for 1 hr on ice in the dark.

Row | SMILES | Enhancement of desensitization compared with single intrasubunit site mutants [1] | Desensitizing effect with combined mutations of all three binding sites [2] | Enhancement of specific [3H]muscimol binding in intact cells [3]
1 | CC(=O)[C@H]1CC[C@H]2[C@@H]3CC[C@H]4C[C@@H](O)CC[C@]4(C)[C@H]3CC[C@]12C [3β5αP, epi-allopregnanolone] | less NS-enhancement of desensitization | not completely eliminated | 
2 | C#CCCO[C@H]1CC[C@H]2[C@@H]3CC[C@H]4CC5(CC[C@]4(C)[C@H]3CC[C@]12C)N=N5 [KK148] |  |  | enhanced
